# pEC50: −log10 of the molar value.
# Target: T1, α7 nAChR (rat α7/CHO cells) (Rattus norvegicus, UniProt Q05941)
# T1 construct: expressed in transfected cells; host or cells: CHO cells (α7/CHO)
# Experiment: Evaluation of modulators of α7 nAChRs using the IonFlux HT automated patch clamp system (potentiation of EC20 ACh-evoked currents)
# Type: cell-based
# Settings: percent potentiation of ACh (EC20, approx. 60 μM) response in α7/CHO cells; 6-point dose response 0.03-10 μM; whole cell patch clamp
# Procedure: Evaluation of Modulators of α7 nAChRs Using the IonFlux^HT Automated Patch Clamp System
# Acetylcholine was freshly prepared for each plate run and used at an EC20 concentration (approximately 60 μM for rat α7/CHO) to induce α7 nAChR currents on the IonFlux^HT. To prepare the ACh solution for a single plate, 6 μl of the 100 mM ACh stock was diluted into 10 ml of 0.3% DMSO/external solution
# Test compounds were prepared for a 6-point dose response from 0.03-10 μM. Working stocks were prepared from serial dilutions of 10 mM DMSO stock solutions to give a final DMSO concentration of 0.3%. 80 μl of the final concentration of each compound was added to the appropriate wells in an IonFlux^HT assay plate.
# 2×T175 flasks of α7/CHO cells (˜60-70% confluent) were washed twice with PBS and trypsinized (2 ml) for 3.5 minutes at 37° C./5% CO2. Cells were collected in F-12K complete media, counted and the number required for the assay was calculated, for example, 2×10^6 cells in a final volume of 670 μl of external solution were required to load one zone (one quarter) of an IonFlux^HT assay plate. The correct number of cells was pelleted by centrifuge, the supernatant was discarded and the cell pellet was resuspend in external solution at the required concentration so that cells were added in a volume of 80 μl per well to the IonFlux^HT assay plate.
# Calculation of the Effect of Compounds on ACh Mediated Currents in α7 nAChRs:
# The effect of test compounds on EC20 ACh-evoked currents was calculated by the formula: […]
# The rinse protocol was the initial step in preparation of the IonFlux^HT plate. 80 μl of MilliQ water was added to every well (except Out wells) and the IonFlux^HT assay plate was run through the water rinse protocol on the machine. At the end of the run, the water was discarded from the wells. This action was repeated twice.
# Briefly, to prepare the plate for the assay aliquots of cells, compounds and internal and external solutions were added to wells of the prepared IonFlux^HT plate (80 μl/well) (solutions made to manufacturer's specifications). Automated whole cell patch-clamp recordings were made using the standard IonFlux^HT single application protocol. Vacuum was held at 6 psi/hg throughout the experiment and membrane potential was held at −80 mV for 35 sec and then at −60 mV during data acquisition. Two ACh (EC20) pulses were applied at the beginning of the assay, 90 seconds apart, to provide an ACh baseline response then cells were perfused with modulators for 89 sec before ACh (EC20) was applied for 1 s. The calculation of percent potentiation of the acetylcholine response for each well was performed by the data analysis software supplied with the IonFlux^HT.
# The following compounds were tested in accordance with the above-procedure for activity and the EC50 values determined are reported: […]
# T1 sequence (Q05941 23-502): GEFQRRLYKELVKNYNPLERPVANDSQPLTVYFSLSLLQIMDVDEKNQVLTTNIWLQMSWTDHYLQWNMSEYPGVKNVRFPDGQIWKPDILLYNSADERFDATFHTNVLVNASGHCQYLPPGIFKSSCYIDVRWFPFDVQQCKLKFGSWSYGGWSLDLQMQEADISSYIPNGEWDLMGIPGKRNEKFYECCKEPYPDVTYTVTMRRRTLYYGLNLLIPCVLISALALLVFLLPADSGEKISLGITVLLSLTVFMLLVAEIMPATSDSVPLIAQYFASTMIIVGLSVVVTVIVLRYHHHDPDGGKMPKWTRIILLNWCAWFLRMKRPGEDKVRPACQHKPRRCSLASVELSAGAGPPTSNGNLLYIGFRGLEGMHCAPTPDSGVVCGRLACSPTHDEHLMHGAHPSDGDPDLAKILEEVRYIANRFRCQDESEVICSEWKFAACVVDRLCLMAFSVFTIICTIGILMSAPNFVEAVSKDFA
row,pEC50,Structure (SMILES)
1,6.71,"COc1ccc(Cl)cc1OC[C@H]1[C@H](c2ccc(NS(C)(=O)=O)cc2)C1(C)C (single isomer, unassigned) [Exp. 5]"
2,6.22,"COc1ccc(OC[C@H]2[C@H](c3ccc(NS(C)(=O)=O)cc3)C2(C)C)cn1 (single isomer, unassigned) [Exp. 6]"
3,5.98,"Cc1cc(F)ccc1OC[C@H]1[C@H](c2ccc(NS(C)(=O)=O)cc2)C1(C)C (single isomer, unassigned) [Exp. 7]"
4,6.29,"Cc1cc(F)ccc1OC[C@H]1[C@H](c2ccc(NS(N)(=O)=O)cc2)C1(C)C (single isomer, unassigned) [Exp. 8]"
5,5.76,"Cc1ccc(F)cc1OC[C@H]1[C@H](c2ccc(NS(N)(=O)=O)cc2)C1(C)C (single isomer, unassigned) [Exp. 9]"
6,6.37,"CC1(C)[C@@H](COc2ccc(F)cc2C(F)(F)F)[C@@H]1c1ccc(S(N)(=O)=O)cc1 (single isomer, unassigned) [Exp. 10]"
7,5.44,"COc1ccc(Cl)cc1OC[C@H]1[C@H](c2ccc(S(N)(=O)=O)cc2)C1(C)C (single isomer, unassigned) [Exp. 11]"
8,5.87,"COc1ccc(Cl)cc1OC[C@@H]1[C@@H](c2ccc(S(N)(=O)=O)cc2)C1(C)C (single isomer, unassigned) [Exp. 12]"
9,7.15,"Cc1ccc(SC[C@H]2[C@H](c3ccc(S(N)(=O)=O)cc3)C2(C)C)cc1 (single isomer, unassigned) [Exp. 13]"
10,6.34,"COc1ccc(Cl)cc1SC[C@@H]1[C@@H](c2ccc(S(N)(=O)=O)cc2)C1(C)C (single isomer, unassigned) [Exp. 14]"
11,7.12,"Cc1ccc(SC[C@@H]2[C@@H](c3ccc(S(N)(=O)=O)cc3)C2(C)C)cc1 (single isomer, unassigned) [Exp. 15]"
12,6.90,"COc1ccc(Cl)cc1SC[C@H]1[C@H](c2ccc(S(N)(=O)=O)cc2)C1(C)C (single isomer, unassigned) [Exp. 16]"
13,5.36,"COc1ccc(OC[C@H]2[C@H](c3ccc(NS(N)(=O)=O)cc3)C2(C)C)cn1 (single isomer, unassigned) [Exp. 17]"
14,5.64,"Cc1ccc(OC[C@H]2[C@H](c3ccc(NS(N)(=O)=O)cc3)C2(C)C)cn1 (single isomer, unassigned) [Exp. 18]"
15,6.46,"Cc1ncccc1OC[C@H]1[C@H](c2ccc(NS(C)(=O)=O)cc2)C1(C)C (single isomer, unassigned) [Exp. 19]"
16,5.48,"Cc1ncccc1OC[C@H]1[C@H](c2ccc(NS(N)(=O)=O)cc2)C1(C)C (single isomer, unassigned) [Exp. 20]"
17,5.41,"COc1ccc(OC[C@@H]2[C@@H](c3ccc(S(N)(=O)=O)cc3)C2(C)C)c(OC)n1 (single isomer, unassigned) [Exp. 21]"
18,6.13,"CC1(C)[C@H](COc2cc(F)ccc2OC(F)F)[C@H]1c1ccc(S(N)(=O)=O)cc1 (single isomer, unassigned) [Exp. 22]"
19,6.26,"COc1cc(Cl)ccc1OC[C@H]1[C@H](c2ccc(NS(N)(=O)=O)cc2)C1(C)C (single isomer, unassigned) [Exp. 23]"
20,6.04,"COc1cc(F)ccc1OC[C@H]1[C@H](c2ccc(NS(N)(=O)=O)cc2)C1(C)C (single isomer, unassigned) [Exp. 24]"
21,5.38,"CC1(C)[C@@H](COc2cccnc2)[C@@H]1c1ccc(S(N)(=O)=O)cc1 (single isomer, unassigned) [Exp. 25]"
22,6.22,"COc1ccc(OC[C@H]2[C@H](c3ccc(S(N)(=O)=O)cc3)C2(C)C)c(OC)n1 (single isomer, unassigned) [Exp. 26]"
23,5.40,"Cc1ccc(OC[C@@H]2[C@@H](c3ccc(S(N)(=O)=O)cc3)C2(C)C)cn1 (single isomer, unassigned) [Exp. 27]"
24,5.51,"CC1(C)[C@H](COc2ccc(F)cc2C#N)[C@H]1c1ccc(S(N)(=O)=O)cc1 (single isomer, unassigned) [Exp. 28]"
25,5.90,"COc1cc(F)ccc1OC[C@@H]1[C@@H](c2ccc(S(N)(=O)=O)cc2)C1(C)C (single isomer, unassigned) [Exp. 29]"

# Reference: US9994518B2, “Alpha-7 nicotinic acetylcholine receptor modulators and uses thereof” (MERCK SHARP & DOHME CORP., priority 2014, dated 2018)
